Entries after “also recorded” stand apart in the source; their conditions may differ.
How the values were obtained:
[1] = tested on: B16 melanoma cells; assay: Intracellular uptake of gadolinium complexes (ICP-MS); type: cell-based, mouse; details: for factor of higher cellular uptake in B16 melanoma vs. the hepatoma cells: 24-h incubation (FIG. 2A)
Description: (§1) Cell culture. B16 melanoma cells (mouse) and MH3924A Morris hepatoma cells (rat) were obtained from the German Cancer Research Center (DKFZ) tumor bank and grown at 37° C. as stock cultures in RPMI 1640 supplemented with 10% fetal calf serum and 1% glutamine as standard medium under a 5% CO2 atmosphere (all components: Pan Biotech GmbH, Aidenbach, Germany). For contrast agent uptake studies 10^6 cells were inoculated into 25 cm^2 culture flasks (BD Biosciences, Bedford, USA) and grown for 24 h in 10 mL of the standard culture medium. Cells were then incubated for an additional 24 h (1 h for temperature dependence studies) with fresh medium containing 0, 1, 2.5, 5 or 10 μM of the selected gadolinium complex (three replicate flasks for each incubation). Afterwards the medium was removed, cells were trypsinated, washed twice, resuspended in culture medium and counted (typical yields: 3.5-6 million cells). For comparison 2.5×10^5 human melanocytes (Promo Cell, Heidelberg, Germany) were incubated for 24 h with melanocyte growth medium (Promo Cell, Heidelberg, Germany) containing 0, 1, 2.5, 5 or 10 μM of the selected gadolinium complex (two replicate flasks for each incubation). The work up procedure was as described above typically yielding 2.5×10^5 cells. Cultured human hepatocytes (Cytonet GmbH, Weinheim, Germany) embedded in a collagen matrix in a 12 well microtiter plate, with 6×10^5 viable cells per well were incubated for 24 h in hepatocyte growth medium (Cytonet GmbH, Weinheim, Germany) containing the same concentration series of selected gadolinium complexes. Afterwards the medium was removed, cells were separated using collagenase (Roche Diagnostics, Mannheim, Germany). After digestion the cells were washed twice with PBS, resuspended in culture medium and counted (typical yields: 6×10^5 cells per tube). The intracellular gadolinium content was determined by ICP-MS as described below.
(§2) ICP-MS. Samples containing the above mentioned number of harvested cells were digested with 50% concentrated HNO3 (Superselect; Merck, Darmstadt, Germany) under microwave heating with a Mars 5 apparatus (CEM GmbH, Kamp-Lintfort, Germany). To each sample 100 μL of an aqueous solution of rhodium chloride (1 μg/mL) were added so that Rh-103 could be used as an internal quantification standard. Gd-160 measurements were performed with the ICP-MS instrument mentioned above. The gadolinium concentrations were determined using standard curves created prior to cell analyses. For each uptake incubation condition triplicate cell samples were analyzed, and Gd content for each sample was recorded as the mean of two MS determinations.
(§3) Intracellular Uptake of Gadolinium Complexes. B16 melanoma and MH3924A hepatoma cells as well as human melanocytes and hepatocytes were incubated for 24 h in the presence of the gadolinium complexes shown in FIG. 1, using concentrations in the range of 1-10 μM. Incubations with the unsubstituted [Gd(DTPA)(H2O)]^2−complex (Magnevist®) served as controls. Following cell harvest and hydrolysis, inductively coupled plasma mass spectrometry (ICP-MS) with direct detection of gadolinium was used to quantitate complex uptake (triplicate cultures for each incubation).
(§4) Cell Uptake Studies. A493 (human kidney), B16 melanoma cells (mouse), HeLa (human cervix), MCF-7 (human breats), MH3924A (Morris hepatoma) cells (rat) and 3T3 NIH (mouse fibroblasts) were obtained from the DKFZ tumor cell collection. 3×10^6 cells of each cell type were grown for 24 hours in culture flasks. Afterwards they were incubated for 1 hour in 10 mL culture media containing 0, 10, 50 and 100 μM of Gd-2.2. Gd-3.2 or Gd-4.2. Afterwards the medium was removed, the cells were trypsinated, washed twice, resuspended in culture medium and counted. The gadolinium uptake was determined in triplicate. […] cells were incubated with 0, 1, 2.5, 5 and 10 μM of the Gd-1.2. and Gd-5.2. for 24 h. […]

[2] = tested on: MH3924A Morris hepatoma cells; assay: as above; type: cell-based, rat
Description: as §1, §2, §3, §4

[3] = tested on: subcutaneous MH3924A tumor; assay: MRI of ACI rats bearing a subcutaneous MH3924A tumor; type: in vivo, rat; details: 24 h post Gd, 0.1 mmol/kg i.v., 2.35 T
Description: (§5) Animal models. For in vivo tumor studies 2×10^6 MH3924A tumor cells were injected subcutaneously into the right thigh of male ACI rats (Charles River, Sulzfeld, Germany) weighing 220 to 260 g. All animal experiments were performed in compliance with the German Animal Protection Laws (Permission 35-9185.81/G-7-03, Reg.-Praesidium, Karlsruhe, Germany).
MRI. At 25 days after inoculation, when tumors had reached a diameter of ca. 10-15 mm, the MR imaging experiments were initiated. ACI rats were anesthetized by intravenous injection of ketamin (Ketanest®, 0.1 mg/g body wt.; Parke-Davis, Berlin, Germany). Then a dose of 0.1 mmol/kg Magnevist® or Gadovist® (Schering, Berlin, Germany) or one of the synthesized agents Gd-3.1., Gd-5.1. or Gd-6.1. was injected intravenously into a lateral tail vein. For one experiment a higher dose (0.36 mmol/kg) of Magnevist® was used. Individual rats were examined by MRI at 1 h and 24 h post Gd, in the case of Magnevist® also at ca. 15 min post Gd. Proton imaging studies were performed at 2.35 T (100.3 MHz) with a Biospec 24/40 instrument (Bruker BioSpin MRI, Ettlingen, Germany). […] Two transaxial multislice imaging protocols were applied with a field of view of 70×70 mm, 128 time-domain data points, 96 phase-encoding steps, and 16 slices of 2 mm thickness. A multi-spin-echo sequence was used for proton-density and T2-weighted images (repetition time TR=2 s, 12 echoes with echo times TE of 8, 16, 24, . . . 96 ms, number of averages=1), and a spoiled gradient-echo sequence was used for T1-weighted imaging (TR=212 ms, TE=5 ms, flip angle=60°, number of averages=3). The data were Fourier transformed to give a 128×128 image matrix with 0.55 mm pixel resolution. Analogous T1-weighted images with coronal slices were acquired with a field of view of 80×80 mm and 3-mm slice thickness.
Imaging viewing, ROI analysis and export of TIFF files was performed with the freeware MRIcro from Chris Rorden (http://people.cas.sc.edu/rorden/mricro.html).

[4] = Biodistribution and excretion in tumor-bearing ACI rats; type: in vivo, rat
Description: as §5
Biodistribution and excretion data. At 14 days after tumor inoculation, when tumors had reached a diameter of ca. 5-6 mm, the biodistribution experiments were initiated. Each animal (210-250 g) was given an intravenous tail-vein injection of […] Magnevist® (Schering, Berlin, Germany) or […] of Gd-5.1. or Gd-6.1. 1 h and 24 hs post-injection (p.i.), the animals were weighed, sacrificed by cervical dislocation and dissected. Organs or tissues were blotted dry and weighed. Samples containing 100-500 mg of the tumor or organs were digested with concentrated HNO3 (Superselect; Merck, Darmstadt, Germany) and H2O2 under microwave heating with a Mars 5 apparatus (CEM GmbH, Kamp-Lintfort, Germany). To each sample 100 μL of an aqueous solution of rhodium chloride (1 μg/mL) were added so that Rh-103 could be used as an internal quantification standard. Gd-160 measurements were performed with the ICP-MS instrument mentioned above. The gadolinium concentrations were determined using standard curves created prior to tissue analyses. The results were expressed as % ID/g tissue. Urine and faeces were gathered in order to measure the excreted amount of Gd(III).

[5] = tested on: MH3924A cells; assay: Polyamine transport inhibition (binding inhibition assay with benzyl viologen); type: cell-based, rat; details: 25 fold molar excess of benzyl viologen over 1 μM Gd-5.1 or Gd-6.1, MH3924A
Description: Polyamine transport inhibition. 10^6 MH3924A cells were inoculated into 25 cm^2 culture flasks (BD Biosciences, Bedford, USA) and grown for 24 h in 10 mL of the standard culture medium. Cells were then incubated for an additional 24 h with fresh medium containing 1 μM of Gd-5.1. or Gd-6.1. and 0, 1, 10, 25, 50 or 100 μM of the polyamine uptake inhibitor benzyl viologen (34, 35). Afterwards the medium was removed, cells were trypsinated, washed twice, resuspended in culture medium and counted (typical yields: 3.5-6 million cells). The gadolinium content of the cells was determined by ICP-MS as described below.
as §2

[6] = Complex stability; type: physicochemical; details: method of Sherry et al.
Description: Complex stability. The stability constants were determined using a method of Sherry et al. (39).

[7] = 1 h post i.v. injection, one ACI rat, scaled to Gd dose of 100 μmol/kg

For O.O=C([O-])CN1CCN(CC(=O)[O-])CCN(CC(=O)[O-])CCN(CC(=O)[O-])CC1.[Gd+3] [[Gd(DOTA)(H2O)]^−, reference compound], the “intracellular uptake (below ICP-MS detection limit)” value ([1]; B16 melanoma cells, control incubation of Example 2) was under 0.0002 fmol/cell and the “intracellular uptake (below ICP-MS detection limit)” value ([2]; MH3924A cells, control incubation of Example 2) was under 0.0002 fmol/cell.
With CNC[C@H](O)[C@@H](O)[C@H](O)[C@H](O)CO.CNC[C@H](O)[C@@H](O)[C@H](O)[C@H](O)CO.O=C([O-])CN(CCN(CC(=O)[O-])CC(=O)O)CCN(CC(=O)[O-])CC(=O)O.[Gd+3] [Magnevist, gadopentetate dimeglumine, reference compound] the “intracellular uptake (below ICP-MS detection limit)” value ([1]; B16 melanoma cells, 24-h incubation, 1-10 μM) was under 0.00002 fmol/cell, the “intracellular uptake (below ICP-MS detection limit)” value ([1]; B16 melanoma cells, 24-h incubation, 1-10 μM, listed as [Gd(DTPA)(H2O)]^2−) was under 0.0002 fmol/cell and the “contrast ratio tumor vs. muscle tissue, T1 weighting” value [3] was “no contrast with T1 weighting was achieved”. The “intracellular uptake (below ICP-MS detection limit)” value ([2]; MH3924A cells, 24-h incubation, 1-10 μM, listed as [Gd(DTPA)(H2O)]^2−) was under 0.0002 fmol/cell, the “Gd concentration, Blood” value [4, 7] was 4.8 nmol/g and the “Gd concentration, Bone (femur)” value [4, 7] was 0.8 nmol/g. For the same compound, the “Gd concentration, Bone Marrow (femur)” value [4, 7] was 1.5 nmol/g, the “Gd concentration, Brain” value [4, 7] was 0.4 nmol/g and the “Gd concentration, Kidney (+urine)” value [4, 7] was 40.7 nmol/g. The “Gd concentration, Liver” value [4, 7] was 3.0 nmol/g, the “Gd concentration, Lung” value [4, 7] was 4.1 nmol/g and the “Gd concentration, Muscle (femur)” value [4, 7] was 1.3 nmol/g. For the same compound, the “Gd concentration, Small Intestine” value [4, 7] was 1.8 nmol/g, the “Gd concentration, Spleen” value [4, 7] was 1.5 nmol/g and the “Gd concentration, Tumor (MH3924A)” value [4, 7] was 3.1 nmol/g. The “Gd concentration, Urine (cumulative)” value [4, 7] was 25805.3 nmol/g and the “gadolinium found in the urine” value ([4]; one hour post injection, ACI rat) was 88%.
In the case of CCN(CC)CCNC(=O)CN(CCN(CCN(CC(=O)[O-])CC(=O)NCCN(CC)CC)CC(=O)[O-])CC(=O)[O-].[Gd+3] [Gd-2.1], the “factor of higher cellular uptake in B16 melanoma vs. the hepatoma cells” value [1] is reported as about 1.72.
With CCCCCCCCCNC(=O)CN(CCN(CCN(CC(=O)[O-])CC(=O)NCCN(CC)CC)CC(=O)[O-])CC(=O)[O-].[Gd+3] [Gd-4.1] the “intracellular uptake (neglectable, near the detection limit)” value ([1]; 24-h incubation, cell line and concentration not stated) was 0.0036 fmol/cell.
With c1ccc(C[n+]2ccc(-c3cc[n+](Cc4ccccc4)cc3)cc2)cc1 [benzyl viologen] the “inhibition of Gd complex uptake” value [5] was “up to 90%”.
In the case of CCN(CC)CCNC(=O)c1ccc(NC(=O)CN(CCN(CCN(CC(=O)[O-])CC(=O)Nc2ccc(C(=O)NCCN(CC)CC)cc2)CC(=O)[O-])CC(=O)[O-])cc1.[Gd+3] [Gd-1.1], the “factor of higher cellular uptake in B16 melanoma vs. the hepatoma cells” value [1] is reported as about 2.2 and the “intracellular uptake of gadolinium complex” value ([2]; MH3924A cells, 24-h incubation, 10 μM) is reported as “ca. 0.062 fmol/cell”.
In the case of CCN(CC)CCNC(=O)c1ccc(NC(=O)CN2CCN(CC(=O)[O-])CCN(CC(=O)[O-])CCN(CC(=O)[O-])CC2)cc1.[Gd+3] [Gd-1.2], the “relative uptake (in words)” value ([2]; B16 and MH3924A, 24 h incubation, 1-10 μM) is reported as “sufficient for MRI imaging purposes but was the lowest of all tested complexes”.
For NCCCNCCCCN(CCCN)C(=O)CN1CCN(CC(=O)[O-])CCN(CC(=O)[O-])CCN(CC(=O)[O-])CC1.[Gd+3] [Gd-4.2], the “relative uptake (in words)” value ([2]; MH3924A and B16 melanoma cells, 1 h incubation, 100 μM) was “comparable with the uptake of Gd-2.2., but somewhat lower; also recorded: lower than uptake of Gd-3.2. and Gd-2.2., but still sufficient for MRI imaging”.
With NCCCCN(CCCNCCCN)C(=O)CN(CCN(CCN(CC(=O)[O-])CC(=O)N(CCCCN)CCCNCCCN)CC(=O)[O-])CC(=O)[O-].[Gd+3] [Gd-5.2] the “intracellular uptake of gadolinium complex” value ([1]; B16 melanoma cells, 24 h incubation, 1-10 μM (concentration not given)) was 0.03 fmol/cell, the complex stability constant [6] was 4.22×10^15 and the “intracellular uptake of gadolinium complex” value ([2]; MH3924A, 24 h incubation, 1-10 μM (concentration not given)) was 0.3 fmol/cell.

— patent US20070202047A1, “Polyamine-substituted ligands for use as contrast agents” (priority 2006, published 2007)
